The subject of data set [1] is PTZ-induced epileptiform activity in rat entorhinal cortex-hippocampal slices. The data set can be described thus: Rat hippocampal PTZ seizure-like activity analysis. Format: cell-based. As to conditions: for IC50: Rattus norvegicus, read-out: decanoic acid IC50 for epileptiform activity; for seizure activity: modelled data. The procedure:
FIG. 3. (A) Epileptiform (paroxysmal) activity was induced in rat entorhinal cortex-hippocampal slices by application of PTZ (2 mM) and [K+] (to 6 mM), and recorded over time at fixed perampanel and increasing decanoic acid (DA) concentration. (B) Epileptiform activity was normalised to activity in absence or presence of each concentration (100 nM and 500 nM) and shown at variable DA concentrations. […] Data is derived from at least three biological repeats.
Seizure-like activity was induced, as previously described (Chang et al. 2016. Brain 139: 431-43), in rat entorhinal cortex-hippocamal slices by application of PTZ (2 mM) to the perfusate and [K+] was increased (to 6 mM). Perampanel (100 or 500 nM) or DMSO was applied to the perfusate, and then decanoic acid (Sigma Ltd) was applied at increasing concentrations at 10 minutes intervals. The change in the frequency of the discharges was measured at minute intervals, averaged every 5 minutes, and normalised to baseline. Data were analyzed using Origin (OriginLab Corporation, MA USA) and SPSS (IBM, UK) with IC50 values calculated from fitting data values with a Hill plot. Statistical analysis was performed using a one-way ANOVA with two-way Dunnett's post hoc test.

In data set [2] the target is T1, AMPA receptor GluA2/3 (Homo sapiens, UniProt P42262+P42263).
T1 construct: expressed in transfected cells; host or cells: Xenopus laevis oocytes
T1 sequence (P42262 22-883 limits assumed): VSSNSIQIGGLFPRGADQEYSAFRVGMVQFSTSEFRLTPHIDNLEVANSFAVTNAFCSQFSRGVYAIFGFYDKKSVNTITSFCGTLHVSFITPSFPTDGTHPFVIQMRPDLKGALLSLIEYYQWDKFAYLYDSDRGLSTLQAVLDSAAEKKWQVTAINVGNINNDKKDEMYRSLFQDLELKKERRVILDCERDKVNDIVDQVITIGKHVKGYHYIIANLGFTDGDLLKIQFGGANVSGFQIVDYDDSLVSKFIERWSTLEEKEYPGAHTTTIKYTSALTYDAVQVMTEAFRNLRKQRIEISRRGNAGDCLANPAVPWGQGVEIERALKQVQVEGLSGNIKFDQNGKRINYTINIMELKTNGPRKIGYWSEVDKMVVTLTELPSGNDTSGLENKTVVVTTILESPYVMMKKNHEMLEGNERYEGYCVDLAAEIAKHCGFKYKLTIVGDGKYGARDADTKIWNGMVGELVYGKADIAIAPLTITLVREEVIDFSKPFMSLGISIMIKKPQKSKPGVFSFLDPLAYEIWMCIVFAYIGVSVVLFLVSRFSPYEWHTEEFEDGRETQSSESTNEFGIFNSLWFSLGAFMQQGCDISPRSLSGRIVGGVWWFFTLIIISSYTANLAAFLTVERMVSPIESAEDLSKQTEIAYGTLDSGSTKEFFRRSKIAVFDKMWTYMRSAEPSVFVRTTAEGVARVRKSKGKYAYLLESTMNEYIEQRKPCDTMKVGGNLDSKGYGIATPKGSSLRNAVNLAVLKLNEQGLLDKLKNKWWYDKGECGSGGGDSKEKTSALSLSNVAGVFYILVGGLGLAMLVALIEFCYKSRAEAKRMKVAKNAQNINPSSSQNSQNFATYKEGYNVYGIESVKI
T1 sequence (P42263 29-894): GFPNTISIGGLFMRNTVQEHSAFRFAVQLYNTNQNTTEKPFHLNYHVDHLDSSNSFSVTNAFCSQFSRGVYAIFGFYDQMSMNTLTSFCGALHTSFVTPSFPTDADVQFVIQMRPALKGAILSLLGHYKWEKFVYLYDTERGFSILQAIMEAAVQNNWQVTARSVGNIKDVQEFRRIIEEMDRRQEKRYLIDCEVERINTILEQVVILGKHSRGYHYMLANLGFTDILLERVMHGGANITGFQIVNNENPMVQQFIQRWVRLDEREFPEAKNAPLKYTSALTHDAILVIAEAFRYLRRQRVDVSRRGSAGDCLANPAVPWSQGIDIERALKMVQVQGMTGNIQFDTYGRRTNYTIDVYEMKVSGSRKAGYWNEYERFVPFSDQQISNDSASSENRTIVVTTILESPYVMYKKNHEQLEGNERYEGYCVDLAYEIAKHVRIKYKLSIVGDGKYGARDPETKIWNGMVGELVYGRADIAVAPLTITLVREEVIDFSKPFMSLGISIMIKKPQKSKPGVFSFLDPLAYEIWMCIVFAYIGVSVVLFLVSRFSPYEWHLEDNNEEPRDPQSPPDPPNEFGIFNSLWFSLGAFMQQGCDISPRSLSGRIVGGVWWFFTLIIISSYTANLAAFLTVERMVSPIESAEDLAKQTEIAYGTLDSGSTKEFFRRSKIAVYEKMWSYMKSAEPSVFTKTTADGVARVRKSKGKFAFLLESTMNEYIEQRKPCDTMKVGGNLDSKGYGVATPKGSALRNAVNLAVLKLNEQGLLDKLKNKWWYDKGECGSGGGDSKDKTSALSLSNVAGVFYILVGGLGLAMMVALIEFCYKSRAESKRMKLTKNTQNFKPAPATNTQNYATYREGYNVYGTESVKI
The data set can be described thus: Direct AMPA receptor current recording (TEVC) in Xenopus oocytes, GluA2/3. Format: cell-based. The procedure:
(§1) FIG. 1. AMPA (GluA2/3, GluA1/2, or GluA3) receptors were expressed in Xenopus oocytes, and perfused with L-glutamate (100 μM) and the indicated compound, unless stated otherwise. Currents were recorded using TEVC. (A) Representative current traces of inhibitory dose-response curves for perampanel on GluA1/2 and GluA2/3 receptors. (B) Dose-response curve showing inhibition of GluA1/2 (N=10) and GluA2/3 (N=6) by perampanel, with respective IC50 values shown in bar graph inset. (C) Effect of varying perampanel concentrations on glutamate EC50 against GluA1/2. Points were normalised to maximal response and represent the mean and SEM of 6 (glutamate only) and 5 (with 2.5 μM and 5 μM perampanel). (D) Quantitative representation of mean currents recorded in wildtype and mutant GluA3 normalised to maximal responses in the presence of perampanel (N=5 for wildtype and N=6 for mutant) and decanoic acid, DA (N=4 for both wildtype and mutant).
(§2) FIG. 2. AMPA (GluA2/3, GluA 1/2, or GluA3) receptors were expressed in Xenopus oocytes, and perfused with L-glutamate (100 μM) and the indicated compound, unless stated otherwise. Currents were recorded using TEVC. (A) Representative current traces of inhibitory dose-response curves for decanoic acid (DA) on GluA2/3 receptors at 1 μM or 4 μM perampanel. Dose-response inhibition curves for decanoic acid at 1μM or 4 μM perampanel on (B) GluA2/3 and (C) GluA1/2 receptors. Points were normalised to maximal response to L-glutamate and solvent, 1 μM perampanel or 4 μM perampanel and represent means and SEM of 8 to 13 readings. Inserts show respective ICs50 values in the presence of perampanel. (D) Representative current traces of inhibitory dose-response curves for perampanel on GluA2/3 receptors at 50 μM to 100 μM decanoic acid. (E), (F) Dose-response inhibition curves for perampanel at 50 μM and 100 μM DA on GluA2/3 (E) and GluA1/2 (F) receptors. Points were normalised to maximal response to L-glutamate with solvent, 50 μM and 100 μM DA and represent means and SEM of 8 to 13 readings. Inserts show respective perampanel IC50 values in the presence of DA. Scale bars correspond to 150 nA in GluA1/2 and 30 nA in GluA2/3 (A), 50 nA (E) and 200 nA (H). Scale bars correspond to 60 nA for +1 μM perampanel and 75 nA for +4 μM perampanel (K) and 200 nA (L).
(§3) As previously described (Chang et al. 2016. Brain 139: 431-43), AMPA receptor subunits (GluA2/3, GluA1/2, and GluA3) were expressed in Xenopus oocytes and agonist elicited inward currents were used to measure inhibition by decanoic acid (Sigma Ltd) and perampanel (Apexmol Technology Co. Ltd).

The conditions of data set [3]: rodent models; cited from earlier work.
In data set [4] the target is T2, AMPA receptor GluA1/2 (Homo sapiens, UniProt P42261+P42262).
T2 construct: expressed in transfected cells; host or cells: Xenopus laevis oocytes
T2 sequence (P42261 19-906): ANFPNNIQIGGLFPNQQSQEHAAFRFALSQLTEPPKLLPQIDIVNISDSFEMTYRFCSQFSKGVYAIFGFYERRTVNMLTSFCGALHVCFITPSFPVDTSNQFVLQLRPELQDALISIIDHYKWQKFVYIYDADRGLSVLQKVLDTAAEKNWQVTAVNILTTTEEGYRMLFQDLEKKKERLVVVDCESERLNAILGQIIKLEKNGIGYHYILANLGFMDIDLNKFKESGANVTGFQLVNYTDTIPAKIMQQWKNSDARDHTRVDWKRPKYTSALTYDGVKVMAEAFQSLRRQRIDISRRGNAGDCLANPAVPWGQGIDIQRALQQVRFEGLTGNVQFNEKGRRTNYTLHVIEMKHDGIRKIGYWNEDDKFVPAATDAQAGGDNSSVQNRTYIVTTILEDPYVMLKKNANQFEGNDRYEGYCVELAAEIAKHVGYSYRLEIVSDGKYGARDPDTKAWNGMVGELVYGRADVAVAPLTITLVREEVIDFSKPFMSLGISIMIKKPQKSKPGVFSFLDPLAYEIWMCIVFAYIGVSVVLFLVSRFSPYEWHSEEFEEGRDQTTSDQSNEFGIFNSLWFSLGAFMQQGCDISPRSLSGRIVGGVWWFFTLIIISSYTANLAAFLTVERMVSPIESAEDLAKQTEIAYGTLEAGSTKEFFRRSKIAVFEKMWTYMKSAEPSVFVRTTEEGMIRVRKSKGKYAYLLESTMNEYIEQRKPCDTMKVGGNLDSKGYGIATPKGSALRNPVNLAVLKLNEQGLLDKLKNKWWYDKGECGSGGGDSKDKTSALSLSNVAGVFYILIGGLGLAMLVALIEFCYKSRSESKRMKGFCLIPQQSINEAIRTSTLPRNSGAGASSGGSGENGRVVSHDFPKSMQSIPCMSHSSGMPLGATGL
T2 sequence (P42262 22-883 limits assumed): as the sequence (P42262 22-883 limits assumed) above
The data set can be described thus: Direct AMPA receptor current recording (TEVC) in Xenopus oocytes, GluA1/2. It counts as cell-based. How it is done:
as §1, §2, §3

Data set [5] can be described thus: Decanoic acid levels in patients on the MCT ketogenic diet. It counts as in vivo. Particulars: extrapolating the rodent ratio to human brain.
The test system of data set [6] is GYKI resistant subunit GluA3 mutant. As to the kind of experiment: Direct AMPA receptor current recording in Xenopus oocytes, GYKI resistant GluA3 mutant. It counts as cell-based. How it is done: as §1, §3
(§4) To confirm this, we expressed a GYKI resistant subunit GluA3 mutant (11) and assessed it for sensitivity to perampanel and decanoic acid (FIG. 1C).

For data set [7] the following is noted: patients on the MCT ketogenic diet; cited from earlier work.
Data set [8] addresses T3, wild type AMPA receptor (GluA3) (Homo sapiens, UniProt P42263).
T3 construct: expressed in transfected cells; host or cells: Xenopus oocytes
As to the kind of experiment: Direct AMPA receptor current recording in Xenopus oocytes, wild type GluA3. It counts as cell-based. The procedure: as §1, §3, §4

Where [9] appears, read: IC50, inhibition of AMPA receptor currents, perampanel alone, currents elicited by glutamate, Xenopus oocytes (FIG. 1B).
[10] abbreviates: read-out: glutamate evoked maximal response reduced to.

Where two headings read alike, the source gives them in different places.

T3 sequence (P42263 29-894, species assumed): as the sequence (P42263 29-894) above

Turning to `CCCCCCCCCC(=O)O` [decanoic acid], the IC50 in data set [1] (at 100 nM perampanel) was 196 µM; in data set [1] (at 500 nM perampanel) it was 122 µM; in data set [1] (without perampanel), 352 µM; in data set [2] (in the absence of perampanel, read-out: decanoic acid IC50 for GluA2/3) it was 520 µM; in data set [2] (in the presence of 1 μM perampanel, read-out: decanoic acid IC50 for GluA2/3), 100 µM; in data set [2] (in the presence of 4 μM perampanel, read-out: decanoic acid IC50 for GluA2/3), 40 µM. Moreover, the IC50 amounted to 920 µM in data set [4] (in the absence of perampanel, read-out: decanoic acid IC50 for GluA1/2); 210 µM in data set [4] (in the presence of 1 μM perampanel, read-out: decanoic acid IC50 for GluA1/2); 90 µM in data set [4] (in the presence of 4 μM perampanel, read-out: decanoic acid IC50 for GluA1/2). Besides, the seizure activity in data set [1] (decanoic acid 10 μM combined with perampanel 100 nM) is on record as 76.8%. In data set [1] (decanoic acid 10 μM with perampanel 500 nM), the “seizure activity (baseline inhibition reduced to)” value is recorded as 69.6%. For the same molecule, the “concentration giving block of epileptiform activity” value in data set [1] (decanoic acid alone) amounted to 1000 µM. Besides, the “concentration at which epileptiform activity was reduced” value in data set [1] (decanoic acid alone, increasing concentrations) is 300 µM. In addition, the “concentration giving block in seizure activity” value in data set [1] (decanoic acid combined with perampanel 100 nM) amounted to 600 µM. In data set [3], the “ratio of decanoic acid in brain to blood plasma” value was “around 0.7”. Moreover, the “average concentration of decanoic acid in the brain” value in data set [5] is recorded as “around 110 μM”. In addition, the “reduction of glutamate-induced currents” value came to 72.8% in data set [6] (decanoic acid 1 mM) and 74.5% in data set [8] (decanoic acid 1 mM). The “average concentration of decanoic acid in peripheral blood” value in data set [7] is 157 µM.
`N#Cc1ccccc1-c1cc(-c2ccccn2)cn(-c2ccccc2)c1=O` [perampanel, 3-(2-Cyanophenyl)-5-(2-pyridyl)-1-phenyl-1,2-dihydropyridin-2-one] displayed a seizure activity in data set [1] (perampanel 100 nM, in the absence of decanoic acid) of 95.6%. Moreover, the IC50 in data set [2] (setting [9]) stood at 1.51 µM; in data set [2] (perampanel IC50 in GluA2/3, in the absence of DA (FIG. 2E)) it was 5.1 µM; in data set [2] (perampanel IC50 in GluA2/3, in the presence of DA at 50 mM), 1.7 µM; in data set [2] (perampanel IC50 in GluA2/3, in the presence of DA at 100 Mm), 1.6 µM; in data set [4] (setting [9]), 1.12 µM; in data set [4] (perampanel IC50 in GluA1/2) it was 2.1 µM. Besides, the IC50 in data set [4] (perampanel IC50 in GluA1/2, in the absence of DA (FIG. 2F)) amounted to 6.2 µM; in data set [4] (perampanel IC50 in GluA1/2, in the presence of DA), 2.2 µM. The “reduction in the IC50 value for perampanel” value in data set [2] (in combination with decanoic acid, GluA2/3) is listed as roughly 3 fold; in data set [4] (in combination with decanoic acid, GluA1/2) it was roughly 3 fold. In data set [2] (with 100 μM decanoic acid, subunit combination not specified), the “increase in the inhibition of the AMPA receptor by perampanel” value is recorded as 3 fold. In data set [4] (increasing glutamate concentrations not reversing inhibition (FIG. 1C)), the “manner of inhibition of AMPA receptor currents” value is “non-competitive”. Also, in data set [4] (setting [10]), the Emax at 2.5 µM is 75.2%. The Emax at 5 µM in data set [4] (setting [10]) amounted to 16.9%. The “reduction of glutamate-induced currents” value in data set [6] (perampanel 20 μM) was found to be 54.3%; in data set [8] (perampanel 20 μM), 94.7%.
